The values below come from patent publication EP4772514A1, “MACROCYCLIC COMPOUNDS, PREPARATION METHOD THEREFOR, AND USE THEREOF” (Genfleet Therapeutics (Shanghai) Inc., priority 2023, dated 2025).

Molecules are shown by their SMILES.

The subject of the assay is p-ERK. In words: Cell p-ERK assay (HTRF, Advance ERK phospho-T202/Y204 kit) in NCI-H441 cells. Conditions: Homo sapiens, NCI-H441, 3 h, NCI-H441, human non-small cell lung cancer cell strain, KRAS G12V mutation; 3 h compound incubation. It counts as cell-based. The method, then:
AsPC-1 cells were purchased from ATCC, Cat. No. CRL-1682; NCI-H441 cells were purchased from ATCC, Cat. No. HTB-174; RPMI-1640 medium was purchased from Gibco, Cat. No. 11875-093; FBS was purchased from Gibco, Cat. No. 10099-141C; penicillin/streptomycin double-antibiotic solution (PS) was purchased from Gibco, Cat. No. 15140-122; trypsin (containing EDTA) was purchased from Gibco, Cat. No. 25200-072; DMSO was purchased from VWRAMRESCO, Cat. No. 0231-500ML; 96-well cell culture plates were purchased from Corning, Cat. No. 3599; white-bottomed, opaque 96-well plates were purchased from Cisbio, Cat. No. 66PL96025; Advance ERK phospho-T202/Y204 kit was purchased from Cisbio, Cat. No. 64AERPEH; cell counter was purchased from CHEMOMETEC, model: NC-200; microplate reader was purchased from PerkinElmer, model: EnVision.
AsPC-1, a human pancreatic cancer cell strain endogenously containing a KRAS^G12D mutation, was cultured in a complete medium containing RPMI-1640 + 10% FBS + 1% PS. NCI-H441, a human non-small cell lung cancer cell strain endogenously containing a KRAS^G12V mutation, was cultured in a complete medium containing RPMI-1640 + 10% FBS + 1% PS.
The cells were digested with trypsin (containing EDTA), collected in their corresponding complete media, and counted. The density of the cell suspensions was adjusted with their corresponding complete media, and AsPC-1 cells (10000 cells/well) or NCI-H441 cells (20000 cells/well) were seeded into a 96-well cell culture plate, with the volume of the medium in each well being 80 µL. The cell culture plate was incubated in an incubator at 37 °C with 5% CO2 overnight. A series of 3.16-fold gradient dilutions of a 1000× compound stock solution were prepared with DMSO, and then diluted 200-fold with the complete medium described above to give 5× compound stock solutions. On the day after cell seeding, 20 µL of the 5× compound stock solution was added to each cell culture well. As a result, the final concentration of the compound in the cell culture well became 1×, and the DMSO content in the well was 0.1%. In addition to the compound-treated wells described above, cell-containing DMSO control wells were also set. A complete medium containing 0.5% DMSO was added at 20 µL/well. After the mixture was well mixed, the culture plate was incubated in the incubator at 37 °C with 5% CO2 for another 3 h. The medium was then removed from the culture wells, and 50 µL of cell lysis buffer (from Advance ERK phospho-T202/Y204 kit) was added to each well. The mixture was well mixed, incubated for 30 min, and then transferred to a white-bottomed, opaque 96-well assay plate at 16 µL/well, and separately, 16 µL of cell lysis buffer was added to additional wells (serving as blank wells) in the assay plate. After the transfer was completed, 4 µL of p-ERK HTRF antibody mixture (from Advance ERK phospho-T202/Y204 kit) was added to each well of the assay plate, followed by a 4-hour incubation. The HTRF signal values (RLU) were then measured using a microplate reader, and the inhibition rate of the compound against p-ERK levels was calculated as follows: IR(%) = (RLUDMSO - RLUcompound)/(RLUDMSO - RLUblank) × 100%, where RLUDMSO is the average HTRF signal value from the DMSO control well samples, RLU is the average HTRF signal value from the blank well samples, and RLUcompound is the HTRF signal value from the compound-treated well samples. Using an XLfit software, the IR(%) values were plotted against the logarithm of the compound concentrations, and the dose-response curves were fitted using the four-parameter method to calculate the IC50 values.
In general terms: Time-resolved FRET reads energy transfer from a long-lived donor to a nearby acceptor.
Turning to `CO[C@@H](C)c1ncc(C#CCN2CCS(=O)(=O)CC2)cc1-c1c2c(nn1C(C)C)/C=C/c1csc(n1)C[C@H](NC(=O)[C@H](C(C)C)N(C)C(=O)Cc1cccc3ccsc13)C(=O)N1CCC[C@H](N1)C(=O)OCC(C)(C)C2` (single isomer, unassigned) [Compound Z120], the half-maximal inhibitory concentration (IC50) (in general, the concentration that inhibits the measured activity by half) was determined as 513 nM.

With `CCn1nc2c(c1-c1cc(C#CCN3CCS(=O)(=O)CC3)cnc1[C@H](C)OC)CC(C)(C)COC(=O)[C@@H]1CCCN(N1)C(=O)[C@@H](NC(=O)[C@H](C(C)C)N(C)c1ccncc1)Cc1nc(cs1)/C=C/2` (atropisomer, axis not shown; (Ra)) [Compound Z122, (2S)-N-((4^2Z,8^3S,2E,6S)-(Ra)-1^5-(5-(3-(1,1-dioxidothiomorpholino)prop-1-yn-1-yl)-2-((S)-1-methoxyethyl)pyridin-3-yl)-1^1-ethyl-12,12-dimethyl-7,9-dioxo-8^1,8^2,8^3,8^4,8^5,8^6-hexahydro-1^1H-10-oxa-4(4,2)-thiazola-8(1,3)-pyridazina-1(3,4)-pyrazolocyclotridec-2-en-6-yl)-3-methyl-2-(methyl(pyridin-4-yl)amino)butanamide], the IC50 turned out to be 181 nM.

As for `CCn1nc2c(c1-c1cc(C#CCN3CCS(=O)(=O)CC3)cnc1[C@H](C)OC)CC(C)(C)COC(=O)[C@@H]1CCCN(N1)C(=O)[C@@H](NC(=O)[C@H](C(C)C)N(C)C1CCCC1)Cc1nc(cs1)/C=C/2` (atropisomer, axis not shown; (Ra)) [Compound Z58, (2S)-2-(cyclopentyl(methyl)amino)-N-((4^2Z,8^3S,2E,6S)-(Ra)-1^5-(5-(3-(1,1-dioxidothiomorpholine)prop-1-yn-1-yl)-2-((S)-1-methoxyethyl)pyridin-3-yl)-1^1-ethyl-12,12-dimethyl-7,9-dioxo-8^1,8^2,8^3,8^4,8^5,8^6-hexahydro-1^1H-10-oxa-4(4,2)-thiazola-8(1,3)-pyridazina-1(3,4)-pyrazolecyclotridec-2-en-6-yl)-3-methylbutanamide], the IC50 turned out to be 55.7 nM.

`CO[C@@H](C)c1ncc(C#CCN2CCS(=O)(=O)CC2)cc1-c1c2c(nn1C(C)C)/C=C/c1csc(n1)C[C@H](NC(=O)[C@H](C(C)C)N(C)c1cccc(C)c1)C(=O)N1CCC[C@H](N1)C(=O)OCC(C)(C)C2` (atropisomer, axis not shown; (Ra)) [Compound Z59, (2S)-N-((4^2Z,8^3S,2E,6S)-1^5-(Ra)-(5-(3-(1,1-dioxidothiomorpholino)prop-1-yn-1-y1)-2-((S)-1-methoxyethyl)pyridin-3-yl)-1^1-isopropyl-12,12-dimethyl-7,9-dioxo-8^1,8^2,8^3,8^4,8^5,8^6-hexahydro-1^1H-10-oxa-4(4,2)-thiazola-8(1,3)-pyridazina-1(3,4)-pyrazolocyclotridec-2-en-6-yl)-3-methyl-2-(methyl(m-tolyl)amino)butanamide] came in with an IC50 of 49.2 nM.

For `CCn1nc2c(c1-c1cc(C#CCN3CCS(=O)(=O)CC3)cnc1[C@H](C)OC)CC(C)(C)COC(=O)[C@@H]1CCCN(N1)C(=O)[C@@H](NC(=O)[C@@H](Cc1ccccc1)C(C)C)Cc1nc(cs1)/C=C/2` (atropisomer, axis not shown; (Ra)) [Compound Z127, (2S)-2-benzyl-N-((4^2Z,8^3S,2E,6S)-(Ra)-1^5-(5-(3-(1,1-dioxidothiomorpholino)prop-1-yn-1-yl)-2-((S)-1-methoxyethyl)pyridin-3-yl)-1^1-ethyl-12,12-dimethyl-7,9-dioxo-8^1,8^2,8^3,8^4,8^5,8^6-hexahydro-1^1H-10-oxa-4(4,2)-thiazola-8(1,3)-pyridazina-1(3,4)-pyrrolacyclotridecaphan-2-en-6-yl)-3-methylbutanamide], the IC50 was 104 nM.

Take `CCn1nc2c(c1-c1cc(C#CCN3CCS(=O)(=O)CC3)cnc1[C@H](C)OC)CC(C)(C)COC(=O)[C@@H]1CCCN(N1)C(=O)[C@@H](NC(=O)[C@H](C(C)C)N(C)c1ccc(F)cc1)Cc1nc(cs1)/C=C/2` (atropisomer, axis not shown; (Ra)) [Compound Z124, (2S)-N-((4^2Z,8^3S,2E,6S)-(Ra)-1^5-(5-(3-(1,1-dioxidomorpholinyl)prop-1-yn-1-yl)-2-((S)-1-methoxyethyl)pyridin-3-yl)-1^1-ethyl-12,12-dimethyl-7,9-dioxo-8^1,8^2,8^4,8^5,8^6-hexahydro-1^1H-10-oxa-4(4,2)-thiazola-8(1,3)-pyridazina-1(3,4)-pyrrolacyclotridecaphan-2-en-6-yl)-2-[(4-fluorophenyl)(methyl)amino]-3-methylbutanamide]: the half-maximal inhibitory concentration (IC50) was 2.05 nM.

`COC[C@H]1CCN1C(=O)N[C@H]1Cc2nc(cs2)/C=C/c2nn(C(C)C)c(-c3cc(C#CCN4CCS(=O)(=O)CC4)cnc3[C@H](C)OC)c2CC(C)(C)COC(=O)[C@@H]2CCCN(N2)C1=O` [Compound Z41, (2R)-N-((4^2Z,8^3S,2E,6S)-1^5-(5-(3-(1,1-dioxidothiomorpholino)prop-1-yn-1-yl)-2-((S)-1-methoxyethyl)pyridin-3-yl)-1^1-isopropyl-12,12-dimethyl-7,9-dioxo-8^1,8^2,8^3,8^4,8^5,,8^6-hexahydro-1^1H-10-oxa-4(4,2)-thiazola-8(1,3)-pyridazina-1(3,4)-pyrrolacyclotridecaphan-2-en-6-yl)-2-(methoxymethyl)azetidine-1-carboxamide] gave an IC50 of 356 nM.

For `CO[C@@H](C)c1ncc(C#CCN2CCS(=O)(=O)CC2)cc1-c1c2c(nn1C(C)C)/C=C/c1csc(n1)C[C@H](NC(=O)[C@H](C(C)C)N(C)c1ccc(C)cc1)C(=O)N1CCC[C@H](N1)C(=O)OCC(C)(C)C2` (atropisomer, axis not shown; (Ra)) [Compound Z61, (2S)-N-((4^2Z,8^3S,2E,6S)-1^5-(Ra)-(5-(3-(1,1-dioxidothiomorpholino)prop-1-yn-1-yl)-2-((S)-1-methoxyethyl)pyridin-3-yl)-1^1-isopropyl-12,12-dimethyl-7,9-dioxo-8^1,8^2,8^3,8^4,8^5,8^6-hexahydro-1^1H-10-oxa-4(4,2)-thiazola-8(1,3)-pyridazina-1(3,4)-pyrazolocyclotridec-2-en-6-yl)-3-methyl-2-(methyl(p-tolyl)amino)butanamide], the IC50 worked out at 69.9 nM. This IC50 is about 5.1-fold lower than that of the compound before.

Take `CO[C@@H](C)c1ncc(C#CCN2CCS(=O)(=O)CC2)cc1-c1c2c(nn1C(C)C)/C=C/c1csc(n1)C[C@H](NC(=O)[C@H](C(C)C)N(C)c1ccc3ccccc3c1)C(=O)N1CCC[C@H](N1)C(=O)OCC(C)(C)C2` (atropisomer, axis not shown; (Ra)) [Compound Z60]: half-maximal inhibition (IC50) was put at 261 nM.

In turn, `CCn1nc2c(c1-c1cc(C#CCN3CCS(=O)(=O)CC3)cnc1[C@H](C)OC)CC(C)(C)COC(=O)[C@@H]1CCCN(N1)C(=O)[C@@H](NC(=O)[C@H](C(C)C)N(C)c1cccnc1)Cc1nc(cs1)/C=C/2` (atropisomer, axis not shown; (Ra)) [Compound Z123, (2S)-N-((4^2Z,8^3S,2E,6S)-(Ra)-1^5-(5-(3-(1,1-dioxidothiomorpholino)prop-1-yn-1-yl)-2-((S)-1-methoxyethyl)pyridin-3-yl)-1^1-ethyl-12,12-dimethyl-7,9-dioxo-8^1,8^2,8^3,8^4,8^5,8^6-hexahydro-1^1H-10-oxa-4(4,2)-thiazola-8(1,3)-pyridazina-1(3,4)-pyrazolocyclotridec-2-en-6-yl)-3-methyl-2-(methyl(pyridin-3-yl)amino)butanamide] registered an IC50 of 4.63 nM. Against the preceding compound, the IC50 is about 56-fold lower.
